In patent US5556744A, “Methods and compositions for diagnosing and treating certain HIV infected patients” (The Trustees of the University of Pennsylvania, priority 1994, dated 1996):

Test system: maternal HIV+ sera (antibodies)
Test: RIA / ELISA binding of maternal HIV+ sera to gp120 and gp41 peptides (Example 3)
Set-up: species or system human
Description: Radioimmunoassay (RIA) and enzyme-linked immunosorbent assay (ELISA) were performed by standard methodologies [E. Engvall, Meth. Immunol., 70:419-439 (1980); S. K. Pierce et al, J. Exp. Med., 144:1254-1262 (1976)]. Peptides were dissolved in 0.05M carbonate-bicarbonate buffer (pH 9.6) at a concentration of 10 μg/ml. Fifty μl (500 ng) of the peptides were immobilized in 96 well polyvinylchloride plates (Dynatech Laboratories, Inc.) overnight at 4° C. Plates were washed and non-specific sites were blocked with PBS containing 1% BSA overnight at 4° C.
Dilutions of HIV positive maternal sera were made in blocking buffer at dilutions of 1:50 and 1:500 and incubated in peptide coated plates overnight at 4° C. Plates were washed with PBS and incubated with 75,000 cpm of ^125 I-labelled goat anti-human IgG. The antibody was iodinated by a chloramine T method [W. V. Williams et al, Proc. Natl. Acad. Sci. USA, 85:6488-6492 (1988)]. Plates were washed, dried and counted in a gamma counter to measure specific binding. Normal human serum (i.e., HIV seronegative) was used as a control.
Alternatively, ELISA assays were performed in polystyrene plates (Dynatech Laboratories, Inc) in which 0.05% Tween 20 (Sigma Chemical Co.) was included in the washing, blocking and dilution buffers. The secondary antibody used was goat […] Ig conjugated to horseradish peroxidase (HRP) (Sigma Chemical Co). The substrate used for color development was 3,3',5,5' tetramethyl-benzidine dihydrochloride (TMB) (Sigma Chemical Co). Absorbance of samples was measured in a Dynatech MR5000 (Dynatech Laboratories, Inc.) plate reader and expressed as an optical density at wavelength of 450 nm (OD450).
The following key is used for the designation of specific binding of the maternal sera samples to the peptides: The minus sign, -, is equivalent to the specific OD450 or cpm of sera sample binding to peptide divided by the specific OD450 or cpm of NHS sample binding to peptide, which value is less than 2. The plus sign, +, is equivalent to the specific OD450 or cpm of sera sample binding to peptide divided by the specific OD450 or cpm of NHS sample binding to peptide, which value is between 2 to 3.
Specific binding is defined as the difference between the OD450 or cpm of sera to wells with peptide and the OD450 or cpm of sera to wells without peptide.
Comparisons of number of peptides which bound maternal serum samples were made between the transmission group and the nontransmission group. The data was analyzed using the unpaired student's test. For the determination of differences in the binding of specific peptides between transmission and non-transmission groups, the Spearman's rank-order correlation test was performed.

[1] = Serum No. 1, Non-Transmission Group
[2] = Serum No. 2, Non-Transmission Group
[3] = Serum No. 3, Non-Transmission Group
[4] = Serum No. 4, Transmission Group
[5] = Serum No. 5, Transmission Group
[6] = Serum No. 6, Non-Transmission Group
[7] = Serum No. 7, Non-Transmission Group
[8] = Serum No. 8, Non-Transmission Group
[9] = Serum No. 9, Non-Transmission Group
[10] = Serum No. 10, Transmission Group
[11] = Serum No. 11, Non-Transmission Group
[12] = Serum No. 12, Non-Transmission Group
[13] = Serum No. 13, Transmission Group
[14] = Serum No. 14, Transmission Group
[15] = Serum No. 15, Transmission Group
[16] = Serum No. 16, Non-Transmission Group
[17] = Serum No. 17, Non-Transmission Group
[18] = Serum No. 18, Non-Transmission Group
[19] = Serum No. 19, Transmission Group
[20] = Serum No. 20, Non-Transmission Group

Sequence | Binding of maternal HIV+ serum to peptide (sera/NHS ratio) [1] | Binding of maternal HIV+ serum to peptide (sera/NHS ratio) [2] | Binding of maternal HIV+ serum to peptide (sera/NHS ratio) [3] | Binding of maternal HIV+ serum to peptide (sera/NHS ratio) [4] | Binding of maternal HIV+ serum to peptide (sera/NHS ratio) [5] | Binding of maternal HIV+ serum to peptide (sera/NHS ratio) [6] | Binding of maternal HIV+ serum to peptide (sera/NHS ratio) [7] | Binding of maternal HIV+ serum to peptide (sera/NHS ratio) [8] | Binding of maternal HIV+ serum to peptide (sera/NHS ratio) [9] | Binding of maternal HIV+ serum to peptide (sera/NHS ratio) [10] | Binding of maternal HIV+ serum to peptide (sera/NHS ratio) [11] | Binding of maternal HIV+ serum to peptide (sera/NHS ratio) [12] | Binding of maternal HIV+ serum to peptide (sera/NHS ratio) [13] | Binding of maternal HIV+ serum to peptide (sera/NHS ratio) [14] | Binding of maternal HIV+ serum to peptide (sera/NHS ratio) [15] | Binding of maternal HIV+ serum to peptide (sera/NHS ratio) [16] | Binding of maternal HIV+ serum to peptide (sera/NHS ratio) [17] | Binding of maternal HIV+ serum to peptide (sera/NHS ratio) [18] | Binding of maternal HIV+ serum to peptide (sera/NHS ratio) [19] | Binding of maternal HIV+ serum to peptide (sera/NHS ratio) [20] | other results
ASWSNKSLEQIWNNM [Peptide 36] | - (specific OD450 or cpm of sera sample binding to peptide divided by the specific OD450 or cpm of NHS sample binding to peptide, which value is less than 2) | - (specific OD450 or cpm of sera sample binding to peptide divided by the specific OD450 or cpm of NHS sample binding to peptide, which value is less than 2) | - (specific OD450 or cpm of sera sample binding to peptide divided by the specific OD450 or cpm of NHS sample binding to peptide, which value is less than 2) | - (specific OD450 or cpm of sera sample binding to peptide divided by the specific OD450 or cpm of NHS sample binding to peptide, which value is less than 2) | - (specific OD450 or cpm of sera sample binding to peptide divided by the specific OD450 or cpm of NHS sample binding to peptide, which value is less than 2) | - (specific OD450 or cpm of sera sample binding to peptide divided by the specific OD450 or cpm of NHS sample binding to peptide, which value is less than 2) | - (specific OD450 or cpm of sera sample binding to peptide divided by the specific OD450 or cpm of NHS sample binding to peptide, which value is less than 2) | - (specific OD450 or cpm of sera sample binding to peptide divided by the specific OD450 or cpm of NHS sample binding to peptide, which value is less than 2) | - (specific OD450 or cpm of sera sample binding to peptide divided by the specific OD450 or cpm of NHS sample binding to peptide, which value is less than 2) | - (specific OD450 or cpm of sera sample binding to peptide divided by the specific OD450 or cpm of NHS sample binding to peptide, which value is less than 2) | - (specific OD450 or cpm of sera sample binding to peptide divided by the specific OD450 or cpm of NHS sample binding to peptide, which value is less than 2) | - (specific OD450 or cpm of sera sample binding to peptide divided by the specific OD450 or cpm of NHS sample binding to peptide, which value is less than 2) | - (specific OD450 or cpm of sera sample binding to peptide divided by the specific OD450 or cpm of NHS sample binding to peptide, which value is less than 2) | - (specific OD450 or cpm of sera sample binding to peptide divided by the specific OD450 or cpm of NHS sample binding to peptide, which value is less than 2) | - (specific OD450 or cpm of sera sample binding to peptide divided by the specific OD450 or cpm of NHS sample binding to peptide, which value is less than 2) | - (specific OD450 or cpm of sera sample binding to peptide divided by the specific OD450 or cpm of NHS sample binding to peptide, which value is less than 2) | - (specific OD450 or cpm of sera sample binding to peptide divided by the specific OD450 or cpm of NHS sample binding to peptide, which value is less than 2) | - (specific OD450 or cpm of sera sample binding to peptide divided by the specific OD450 or cpm of NHS sample binding to peptide, which value is less than 2) | - (specific OD450 or cpm of sera sample binding to peptide divided by the specific OD450 or cpm of NHS sample binding to peptide, which value is less than 2) | - (specific OD450 or cpm of sera sample binding to peptide divided by the specific OD450 or cpm of NHS sample binding to peptide, which value is less than 2) | –
ATEKLWVTVYYGVPVWLEATTTL [Peptide 60] | - (specific OD450 or cpm of sera sample binding to peptide divided by the specific OD450 or cpm of NHS sample binding to peptide, which value is less than 2) | - (specific OD450 or cpm of sera sample binding to peptide divided by the specific OD450 or cpm of NHS sample binding to peptide, which value is less than 2) | - (specific OD450 or cpm of sera sample binding to peptide divided by the specific OD450 or cpm of NHS sample binding to peptide, which value is less than 2) | - (specific OD450 or cpm of sera sample binding to peptide divided by the specific OD450 or cpm of NHS sample binding to peptide, which value is less than 2) | - (specific OD450 or cpm of sera sample binding to peptide divided by the specific OD450 or cpm of NHS sample binding to peptide, which value is less than 2) | - (specific OD450 or cpm of sera sample binding to peptide divided by the specific OD450 or cpm of NHS sample binding to peptide, which value is less than 2) | - (specific OD450 or cpm of sera sample binding to peptide divided by the specific OD450 or cpm of NHS sample binding to peptide, which value is less than 2) | - (specific OD450 or cpm of sera sample binding to peptide divided by the specific OD450 or cpm of NHS sample binding to peptide, which value is less than 2) | - (specific OD450 or cpm of sera sample binding to peptide divided by the specific OD450 or cpm of NHS sample binding to peptide, which value is less than 2) | - (specific OD450 or cpm of sera sample binding to peptide divided by the specific OD450 or cpm of NHS sample binding to peptide, which value is less than 2) | - (specific OD450 or cpm of sera sample binding to peptide divided by the specific OD450 or cpm of NHS sample binding to peptide, which value is less than 2) | - (specific OD450 or cpm of sera sample binding to peptide divided by the specific OD450 or cpm of NHS sample binding to peptide, which value is less than 2) | - (specific OD450 or cpm of sera sample binding to peptide divided by the specific OD450 or cpm of NHS sample binding to peptide, which value is less than 2) | - (specific OD450 or cpm of sera sample binding to peptide divided by the specific OD450 or cpm of NHS sample binding to peptide, which value is less than 2) | - (specific OD450 or cpm of sera sample binding to peptide divided by the specific OD450 or cpm of NHS sample binding to peptide, which value is less than 2) | - (specific OD450 or cpm of sera sample binding to peptide divided by the specific OD450 or cpm of NHS sample binding to peptide, which value is less than 2) | - (specific OD450 or cpm of sera sample binding to peptide divided by the specific OD450 or cpm of NHS sample binding to peptide, which value is less than 2) | - (specific OD450 or cpm of sera sample binding to peptide divided by the specific OD450 or cpm of NHS sample binding to peptide, which value is less than 2) | - (specific OD450 or cpm of sera sample binding to peptide divided by the specific OD450 or cpm of NHS sample binding to peptide, which value is less than 2) | - (specific OD450 or cpm of sera sample binding to peptide divided by the specific OD450 or cpm of NHS sample binding to peptide, which value is less than 2) | Binding of maternal sera to peptide (in words) (Example 3): No binding
